What was measured:
Rattus norvegicus = assay: Amount of urine output was measured in rat at a dose of 10 mg/kg administered orally; format: ADME, organism-based; parameters: dose 10 mg/kg, route oral; settings: in vivo, po
Vasopressin V1a receptor [1] = molecular target: T1, Vasopressin V1a receptor (Homo sapiens, UniProt P37288); assay: In vitro inhibition of [3H]- AVP binding to V1a receptor from human platelet membrane at 10 uM
Target sequence in this assay (P37288 whole entry, looked up): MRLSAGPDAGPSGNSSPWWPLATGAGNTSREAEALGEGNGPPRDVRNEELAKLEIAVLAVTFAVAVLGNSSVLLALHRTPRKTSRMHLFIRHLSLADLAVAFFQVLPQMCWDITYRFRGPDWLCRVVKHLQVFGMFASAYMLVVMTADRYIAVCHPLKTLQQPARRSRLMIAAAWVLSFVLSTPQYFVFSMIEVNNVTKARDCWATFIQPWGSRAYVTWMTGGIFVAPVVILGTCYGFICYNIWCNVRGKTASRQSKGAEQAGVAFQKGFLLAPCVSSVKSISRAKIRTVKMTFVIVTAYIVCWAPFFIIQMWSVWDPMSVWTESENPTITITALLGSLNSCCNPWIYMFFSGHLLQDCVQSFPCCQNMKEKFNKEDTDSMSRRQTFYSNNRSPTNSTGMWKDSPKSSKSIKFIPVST

Vasopressin V2 receptor = Vasopressin V2 receptor (Homo sapiens, UniProt P30518); assay: In vitro inhibition of [3H]AVP binding to human V2 receptor from murine fibroblast cell line (LV2); format: cell-based
Vasopressin V1a receptor [2] = molecular target: T1, Vasopressin V1a receptor; assay: In vitro inhibition of [3H]- AVP binding to V1a receptor from human platelet membrane
Target sequence in this assay (P37288 whole entry): as the sequence (P37288 whole entry, looked up) above

Chain of Vasopressin V2 receptor (P30518 whole entry): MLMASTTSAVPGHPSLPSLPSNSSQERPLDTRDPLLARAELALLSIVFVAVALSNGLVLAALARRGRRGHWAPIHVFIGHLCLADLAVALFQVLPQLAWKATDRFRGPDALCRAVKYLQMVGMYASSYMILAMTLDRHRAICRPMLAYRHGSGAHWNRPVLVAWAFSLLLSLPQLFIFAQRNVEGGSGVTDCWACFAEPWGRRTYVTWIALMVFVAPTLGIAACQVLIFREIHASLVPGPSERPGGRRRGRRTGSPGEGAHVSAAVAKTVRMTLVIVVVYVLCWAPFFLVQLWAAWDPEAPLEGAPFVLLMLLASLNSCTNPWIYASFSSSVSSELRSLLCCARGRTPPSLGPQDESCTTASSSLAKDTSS

Row | Structure (SMILES) | Urine volume (Rattus norvegicus) [ml 4hr-1] | inhibition (Vasopressin V1a receptor [1]) [%] | IC50 (Vasopressin V2 receptor) [nM] | IC50 (Vasopressin V1a receptor [2]) [nM]
1 | Cc1ccc(F)cc1C(=O)Nc1ccc(C(=O)N2Cc3sccc3Cc3ccccc32)c(Cl)c1 | 30 | 59 | 6.8 | 
2 | Cc1ccccc1C(=O)Nc1ccc(C(=O)N2Cc3ccsc3Cc3ccccc32)cc1 | 4.5 |  |  | 
3 | Cc1ccccc1C(=O)Nc1ccc(C(=O)N2Cc3sccc3Cc3ccccc32)cc1 | 13.5 |  | 0.7 | 8.5
4 | Cc1ccc(F)cc1C(=O)Nc1ccc(C(=O)N2Cc3cccn3Cc3ccccc32)c(Cl)c1 [LIXIVAPTAN] | 35 |  |  | 

Next, values leading:

Row | Urine volume (Rattus norvegicus) [ml 4hr-1] | inhibition (Vasopressin V1a receptor [1]) [%] | IC50 (Vasopressin V2 receptor) [nM] | IC50 (Vasopressin V1a receptor [2]) [nM] | Structure (SMILES)
5 | 16.5 |  |  |  | Cc1ccc(F)cc1C(=O)Nc1ccc(C(=O)N2Cc3sccc3Cc3ccccc32)cn1
6 | 5.8 |  | 19 | 43 | O=C(Nc1ccc(C(=O)N2Cc3sccc3Cc3ccccc32)cc1)c1ccc(Cl)cc1Cl
